# Patent publication US20190022092A1, “Therapeutic Combinations of a BTK Inhibitor and a GITR Binding Molecule, a 4-1BB Agonist, or an OX40 Agonist” (Acerta Pharma B.V., priority 2015, published 2019)
# Key:
# [1] = tested on: CD8+ T cells; assay: CD8+ T cell viability on anti-TCR/anti-CD28 coated wells; assay type: cell-based; conditions: 4 days, neutral culture conditions
# Method: Total T cells were plated on anti-TCR and anti-CD28 coated wells in the presence of both BTK inhibitors. Neutral culture conditions were used that will not polarize T cells to a helper lineage. […] Statistical significance was calculated using the Mann Whitney T-test.
# [2] = tested on: CD8+ T cell function (B lymphoblast targets); assay: Cytotoxic T cell (CTL) assay; assay type: cell-based; conditions: CTL generated 4 days with 500 nM inhibitor
# Method: Without being bound by any theory, CD8^+ T cells have two primary effector functions: (1) produce large amounts of IFN-γ (which activates macrophages), and (2) cytolytic activity. […] The targets were B lymphoblasts from lipopolysaccharide (LPS) treated cultures. The assay was performed by incubating different ratios of effectors:targets for 4 hours.
# [3] = tested on: GPVI platelet aggregation; assay: GPVI platelet aggregation studies; assay type: cell-based; conditions: read-out: IC50, GPVI platelet aggregation
# [4] = tested on: CD8+ T cell; assay: Cytotoxicity assay for CD8+ T cell function; assay type: cell-based; conditions: relative to vehicle
# Text: FIG. 38 illustrates the results of the cytotoxicity assay for CD8^+ T cell function.
# [5] = tested on: NK cell lysis of Raji cells; assay: Rituximab ADCC 51Cr release assay, Raji targets; assay type: cell-based, human
# Text: Cell culture conditions were as follows. […] The HER18 cells were maintained in DEM supplemented with fetal bovine serum, penicillin-streptomycin and. Prior to assay, HER18 cells were harvested using trypsin-EDTA, washed with phosphate-buffered saline (PBS) containing 5% serum and viable cells were counted. For culture of primary target cells, peripheral blood from CLL patients was subject to density centrifugation to obtain peripheral blood mononuclear cells (PBMC). Cell preparations were washed and then subject to positive selection of CD5^+CD19^+ CLL cells using magnetic beads (MACS, Miltenyi Biotech). Cell preparations were used fresh after selection. NK cells from CLL patients and healthy volunteers were enriched from peripheral blood collected in sodium citrate anticoagulant tubes and then subject to density centrifugation. Removal of non NK cells was performed using negative selection by MACS separation. Freshly isolated NK cells were washed three times, enumerated, and then used immediately for ADCC assays.
# ADCC assays were performed as follows. Briefly, target cells (Raji or primary CLL) were labeled by incubation at 37° C. with 100 μCi ^51Cr for 4 hours prior to co-culture with NK cells. Cells were washed, enumerated, and then added in triplicate to prepared 96-well plates containing treated NK cells at an effector:target (E:T) ratio of 25:1. […] Cultures were incubated at 37° C. for 4 hours, and then centrifuged. Supernatants were harvested and ^51Cr release was measured by liquid scintillation counting. All experiments were performed in triplicate.
# [6] = tested on: Raji cell line; assay: Antibody-dependent NK cell-mediated cytotoxicity, chromium release, Raji cell line; assay type: cell-based; conditions: 1 μM, 4 hours, variable rituximab, effector:target 25:1
# [7] = tested on: Th17 and Treg cells; assay: Th17 and Treg development of CD4+ T cells under skewing cytokines; assay type: cell-based
# Method: Enriched CD4^+ T cells are plated on 24-well culture dishes that have been precoated 2 hr with 250 μL anti-TCRβ (0.5 μg/mL) plus anti-CD28 (5 μg/mL) at 37° C. in PBS. The cells are then supplemented with media containing BTK inhibitors along with the skewing cytokines as indicated in the following. The Th17 and Treg cultures are grown for 4 days before analysis. The cells are maintained for an additional 3 days with skewing cytokines (Th17; 20 ng/mL IL-6, 0.5 ng/mL TGF-β, 5 μg/mL IL-4, 5 μg/mL IFN-γ and Treg; 0.5 ng/mL TGF-β, 5 μg/mL IL-4, 5 μg/mL IFN-γ) and are supplemented with IL2 as a growth factor.
# [8] = tested on: CD8+ T cell; assay: IFN-γ level measurements for CD8+ T cell function; assay type: cell-based; conditions: relative to vehicle
# Text: FIG. 39 illustrates the results of IFN-γ level measurements for CD8^+ T cell function.
# [9] = tested on: GPVI platelet aggregation; assay: GPVI (convulxin-induced) platelet aggregation; assay type: cell-based; conditions: human platelets
# Method: In FIG. 67, the results of CVX-induced (250 ng/mL) human platelet aggregation results before and 15 minutes after administration of the BTK inhibitors to 6 healthy individuals are shown.
# [10] = tested on: hematologic malignancies; conditions: cited from earlier work
# [11] = tested on: human platelet-mediated thrombosis; conditions: VWF HA1, mouse (infused with human platelets), in vivo, 2 min
# Method: Injury to the vessel wall of arterioles ([…] diameter) was performed using a pulsed nitrogen dye laser (440 nm, Photonic Instruments) applied through a 20× water-immersion Olympus objective (LUMPlanF1, 0.5 numerical aperture (NA)) of a Zeiss Axiotech vario microscope. […] The extent of thrombus formation was assessed for 2 minutes after injury and the area (μm^2) of coverage determined (Image IQ, Andor Technology).
# The BTK inhibitor-treated human platelets were fluorescently labeled and infused continuously through a catheter inserted into the femoral artery.
# [12] = tested on: peripheral blood B cell; conditions: doses from 0.001-100 mg/kg, two experiments; cited from earlier work
molecule,measurement,setting,value
"C=CC(=O)N1CCC[C@@H](n2nc(-c3ccc(Oc4ccccc4)cc3)c3c(N)ncnc32)C1 [Formula (10), 1-[(3R)-3-[4-amino-3-(4-phenoxyphenyl)-1H-pyrazolo[3,4-d]pyrimidin-1-yl]piperidin-1-yl]prop-2-en-1-one, reference compound]",CD8+ T cell viability,[1],"strong, negative effect"
same,CD8+ T cell function as % cytotoxicity,[2],affects CD8^+ T cell function
same,CD8+ T cell function as IFN-γ levels,[2],significant loss of function
same,IC50,[3],130 nM
same,CD8+ T cell function as % cytotoxicity,[4],affects CD8^+ T cell function as measured by % cytotoxicity
same,"effect on rituximab-mediated ADCC, Raji cells","[5]; 1 μM, NK cells, E:T 25:1",strongly inhibited
same,antibody-dependent NK cell-mediated cytotoxicity (percent lysis),[6],antagonizes antibody-dependent NK cell-mediated cytotoxicity
same,Th17 development,[7],profound inhibition
same,Treg development,[7],increase
same,CD8+ T cell function as IFN-γ level,[8],affects CD8^+ T cell function as measured by IFN-γ level
same,GPVI platelet aggregation,[9],significantly inhibits
same,antitumor activity,[10]; subjects with heavily pretreated non-Hodgkin lymphoma,substantial antitumor activity
same,maximum tolerated dose (MTD),[10]; within the tested dose range (through 840 mg),No maximum tolerated dose (MTD) was apparent
"C=CC(=O)Nc1cccc(Nc2nc(Nc3ccc(OCCOC)cc3)ncc2F)c1 [Formula (17), N-(3-((5-fluoro-2-((4-(2-methoxyethoxy)phenyl)amino)pyrimidin-4-yl)amino)phenyl)acrylamide, reference compound]",effect on human platelet-mediated thrombus formation,[11],effect similar to Formula (10) (ibrutinib)
"PF-05082566: 4-1BB agonist monoclonal antibody from Pfizer; heavy chain SEQ ID NO:435, light chain SEQ ID NO:436",peripheral blood B cell numbers,[12],either unchanged or decreased
rituximab: anti-CD20 antibody (Genentech),increase in cell lysis over natural cytotoxicity,"[5]; rituximab 0.1 and 1 μg/mL, healthy donor NK cells, Raji cells",5- to 8 fold
